Assays:
Caki-1 cells [1] = assay: Western blot of cell lysate, Caki-1 cells; format: cell-based, human; conditions: 48 h
Source text: (§1) Tumors from mouse xenografts and cultured 786-O and Caki-1 cells were homogenized in SDS Laemmli buffer and loaded onto 10% SDS-polyacrylamide agarose gel electrophoresis gels, transferred to nitrocellulose membranes and blocked with 5% milk in TBST^32. Membranes were probed with primary antibody followed by wash and horseradish peroxidase secondary antibody application.

786-O cells [2] = assay: Clonogenic assay, 786-O cells; format: cell-based, human; conditions: 48 h treatment, 10 days growth
Experimental: 786-O and Caki-1 cells were plated at very low density (1,000 cells/well) in six-well plates. After 16 h, cells were treated with different doses of OPC31260 and incubated for 48 h. Cells were washed and grown for 10 days until visible colonies formed. Colonies were fixed with 4% paraformaldehyde in PBS, stained with 0.25% crystal violet in 25% methanol, washed, air-dried and photographed. Crystal violet was dissolved in sodium citrate buffer (0.1M, 50% ethanol, pH 4.2) and absorbance was recorded at 590 nm.

786-O cells [3] = assay: Western blot of cell lysate, 786-O cells; format: cell-based, human; conditions: 24 h
Source text: as §1

Caki-1 cells [4] = assay: Cell cycle analysis (propidium iodide, FACS), Caki-1 cells; format: cell-based, human; conditions: 24 h, 10 μM or higher doses
Experimental: (§2) 786-O and Caki-1 cells were incubated for 24 h with 0, 1, 5, 10, 25 or 50 μM of OPC31260, and stained with propidium iodide for analysis by flow cytometry. Cells were rinsed with PBS and trypsinized, and washed twice with PBS. Single-cell suspensions were fixed using pre-chilled 70% ethanol overnight, and subsequently permeabilized with PBS containing 0.1% Triton X-100, 1 mg/ml propidium iodide (Sigma-Aldrich) and 2 mg/ml DNase-free RNase at room temperature. Flow cytometry was done with a FACS Calibur analyzer (Becton Dickinson, Mountain, View, Calif.), capturing 10,000 events for each sample. Results were analyzed with ModFit LT™ software (Verity Software House, Topsham, Me.).

786-O cells [5] = assay: MTT cell viability, 786-O cells; format: cell-based; conditions: Homo sapiens, 786-0, 48 h, read-out: dose at which cell viability declined by 50%
Experimental: MTT assays were performed to measure cell viability. Briefly, exponentially growing 786-O and Caki-1 cells were seeded in 96 well plates. After 24 h, cells were incubated with different doses of OPC31260 for 48 h. The cells were then incubated in MTT solution (5 mg/mL) for 2 h, following which the MTT solution was removed and the intracellular purple formazan was solubilized in DMSO and quantified by spectrophotometry at […].

Caki-1 cells [6] = assay: Immunostaining of xenograft tumor sections (Ki-67, BRDU, CD31); format: in vivo, Nu/Nu mice; conditions: OPC31260 IP, tolvaptan 120 mg/Kg oral, dDAVP 1 μg/Kg IP, daily 28 days
Experimental: (§3) Female Athymic Nude-Foxn1^nu mice (Nu/Nu mice), 7-8 weeks old and weighing ˜25 g were procured from Envigo/Harlan. All animal studies were carried out according to the protocols approved by the University of Kansas Medical Center Institutional Animal Care and Use Committee. Mice were subcutaneously injected on the right flank region with 1×10^6 Caki-1 cells in 100 μl of DMEM medium. One week after injection, palpable tumors appeared and tumor volume was measured with calipers following the formula, […]. Once the tumor volume reached ˜80-100 mm^3, mice were randomized into sub-groups based on the tumor volume. Animals were administered vehicle, OPC31260 (30 mg/Kg BWt.), OPC31260 (60 mg/Kg BWt) or dDAVP (1 μg/Kg BWt.) and vehicle (saline) by daily intraperitoneal injection, or tolvaptan (120 mg/Kg BWt. in 1% aqueous solution of hydroxypropyl methylcellulose-dose derived from previous study^31) or vehicle by daily oral gavage for 28 days. Body weights and tumor volumes were measured every alternate day. At the end of the study, mice were injected with BRDU (100 mg/Kg BWt. by IP) 90 minutes before sacrifice. Tumors were harvested, photographed and weighed. Tumors were flash frozen or paraffin embedded for further analysis.
Tumor tissues were fixed overnight in 4% paraformaldehyde, dehydrated in a graded alcohol series, and embedded in paraffin for histological analysis as previously described^26. Slides with 5 μm tissue sections were heated in a steamer for 20 min in citrate buffer (pH 6.0) to unmask antigens. Slides were further blocked with 10% goat serum (Invitrogen) and then incubated overnight with primary antibody (V2R, CD31, BRDU, Ki67 and p-H3). After washing the slides with PBST, slides were incubated with appropriate fluorescence-labeled secondary antibody (Invitrogen) and streptavidin HRP conjugated (Invitrogen) secondary antibody for immunoflurorescence and immunohistochemistry, respectively. Slides were also incubated in 4′,6-diamidino-2-phenylindole to visualize nuclei. For immunofluorescence staining, slides were mounted with Fluoromount G (Southern Biotech). For immunohistochemistry, slides were developed with DAB (Vector Laboratories) and counterstained with Harris haematoxylin, dehydrated, and mounted with Permount (Fisher Scientific, Waltham, Mass.). All images were captured using a Nikon 80i microscope (Tokyo, Japan) at the KUMC Imaging Center.

[7] = format: in vivo; conditions: OPC31260 30 and 60 mg/Kg, daily intraperitoneal, 28 days
Experimental: as §3

786-O cells [8] = assay: Cell cycle analysis (propidium iodide, FACS), 786-O cells; format: cell-based, human; conditions: 24 h, 10 μM or higher doses
Experimental: as §2

CCRCC = assay: Immunocompetent animal model of spontaneous CCRCC; format: in vivo, Vh1Δ/ΔTrp53Δ/ΔRb1Δ/Δ mice; conditions: treatment from 30 weeks after start of tamoxifen till 56 weeks
Source text: The Vh1^Δ/ΔTrp53^Δ/ΔRb1^Δ/Δ mice (Harlander S et al, Nat Med 2017 23(7):869-877) can spontaneously develop CCRCC. Gene deletion of Vhl and tumor suppressors p53 and Rb 1 will be achieved using a Ksp1.3-CreERT2, tamoxifen-inducible system. For the studies, 6-week old Vh1^Δ/ΔTrp53^Δ/ΔRb1^Δ/ΔKsp1.3-CreERT2 mice will be treated with vehicle (saline) or tamoxifen for 14 days used to obtain wildtype control mice and Vh1^Δ/ΔTrp53^Δ/ΔRb1^Δ/Δ mice with RCC stumors. Starting 30 weeks after start of tamoxifen, the wildtype and Vh1^Δ/ΔTrp53^Δ/ΔRb1^Δ/Δ mice will be treated with vehicle, dDAVP, OPC31260, or tolvaptan till 56 weeks. The effect of V2R activation or inhibition will be monitored by MRI as well as by gross and pathological analysis and of kidneys at sacrifice.

## Cc1ccccc1C(=O)Nc1ccc(C(=O)N2CCCC(N(C)C)c3ccccc32)cc1 (centres unmarked) [OPC31260, 5-(dimethylamino)-1-[4-(2-methylbenzamido)benzoyl]-2,3,4,5-tetrahydro-1H-benzazepine]
Caki-1 cells [1]
  pCREB levels: dose-dependently reduced
  pERK1/2 levels: dose-dependently reduced
786-O cells [2]
  dose from which a significant decline in colony formation was observed: 5 µM
786-O cells [3]
  pCREB levels: dose-dependently reduced
  pERK1/2 levels: dose-dependently reduced
Caki-1 cells [4]
  cells in G2/M phase: 60-70%
786-O cells [5]
  IC50: 5 to 10 µM
Caki-1 cells [6]
  BRDU staining / incorporation of tumors compared to vehicle: significantly reduced
  Ki-67 staining of tumors compared to vehicle: significantly reduced
  tumor micro-vessel density (CD31 staining): significantly reduced
[7]
  body weight of the mice: did not significantly change
  urine osmolality: reduced urine osmolality in a dose dependent manner
786-O cells [8]
  cells in G2/M phase: 60-70%
CCRCC
  expected tumor burden / tumor growth: significantly suppress tumor growth

Source: patent US11110098B2, “Methods and medicaments for the treatment of renal cell carcinoma” (University of Kansas, priority 2017, dated 2021)
